Results published in PubChem BioAssay (NCI).
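Five compound concentrations were applied to cells in 96-well plates for 48 hours; endpoints were derived by simple linear interpolation of the resulting dose-response curve. TGI marks complete inhibition of growth.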

Key:
Assay in all cases: NCI anticancer screen, dose series, 48 h
UACC-257 melanoma = system: UACC-257 melanoma
HCT-116 colon = system: HCT-116 colon
CAKI-1 renal = system: CAKI-1 renal
HT29 colon = system: HT29 colon
SNB-19 CNS = system: SNB-19 CNS
LOX IMVI melanoma = system: LOX IMVI melanoma
HCT-15 colon = system: HCT-15 colon
UACC-62 melanoma = system: UACC-62 melanoma
SNB-75 CNS = system: SNB-75 CNS
SF-539 CNS = system: SF-539 CNS
DU-145 prostate = system: DU-145 prostate
OVCAR-5 ovarian = system: OVCAR-5 ovarian
BT-549 breast = system: BT-549 breast
NCI-H23 lung = system: NCI-H23 lung
MDA-MB-231 breast = system: MDA-MB-231 breast
MDA-MB-435 = system: MDA-MB-435
TK-10 renal = system: TK-10 renal
SW-620 colon = system: SW-620 colon
HS 578T breast = system: HS 578T breast
NCI-H226 lung = system: NCI-H226 lung
ACHN renal = system: ACHN renal
IGROV1 ovarian = system: IGROV1 ovarian
786-0 renal = system: 786-0 renal
SK-MEL-5 melanoma = system: SK-MEL-5 melanoma
PC-3 prostate = system: PC-3 prostate
M14 melanoma = system: M14 melanoma
MDA-N = system: MDA-N
HCC-2998 colon = system: HCC-2998 colon
A549 NSCLC = system: A549 NSCLC
K-562 leukemia = system: K-562 leukemia
SR leukemia = system: SR leukemia
A498 renal = system: A498 renal
HL-60(TB) leukemia = system: HL-60(TB) leukemia
HOP-92 NSCLC = system: HOP-92 NSCLC
UO-31 renal = system: UO-31 renal
RPMI-8226 leukemia = system: RPMI-8226 leukemia
SN12C renal = system: SN12C renal
NCI/ADR-RES ovarian = system: NCI/ADR-RES ovarian
KM12 colon = system: KM12 colon
SF-295 CNS = system: SF-295 CNS
SF-268 CNS = system: SF-268 CNS
U251 CNS = system: U251 CNS
COLO 205 colon = system: COLO 205 colon
MALME-3M melanoma = system: MALME-3M melanoma
NCI-H522 lung = system: NCI-H522 lung
HOP-62 NSCLC = system: HOP-62 NSCLC
EKVX NSCLC = system: EKVX NSCLC
SK-OV-3 ovarian = system: SK-OV-3 ovarian
OVCAR-8 ovarian = system: OVCAR-8 ovarian
OVCAR-3 ovarian = system: OVCAR-3 ovarian
OVCAR-4 ovarian = system: OVCAR-4 ovarian
SK-MEL-28 melanoma = system: SK-MEL-28 melanoma
MCF7 breast = system: MCF7 breast
SK-MEL-2 melanoma = system: SK-MEL-2 melanoma
RXF 393 renal = system: RXF 393 renal
NCI-H460 lung = system: NCI-H460 lung
MOLT-4 leukemia = system: MOLT-4 leukemia
CCRF-CEM leukemia = system: CCRF-CEM leukemia
T-47D breast = system: T-47D breast

Measured: TGI

Cc1ccc(C(O)c2cnc(C)n2Cc2ccccc2)cc1 (stereo unspecified)
not listed: MOLT-4 leukemia | CCRF-CEM leukemia | T-47D breast
> 100 µM: all other assays above

O=c1oc2ccccc2n1CCN1CCCCC1
not listed: HCC-2998 colon | A549 NSCLC | HOP-92 NSCLC | UO-31 renal | NCI-H522 lung | OVCAR-4 ovarian | T-47D breast
> 100 µM: all other assays above

COc1ccccc1N1CCN(Cn2c(=O)oc3cccnc32)CC1
not listed: UACC-62 melanoma | BT-549 breast | NCI-H226 lung | SN12C renal | KM12 colon | COLO 205 colon
> 100 µM: all other assays above
